{"source": "patent US20150105252A1", "about": "“SUBSTITUTED PYRAZOLES AS HERBICIDES” (E I DU PONT DE NEMOURS AND COMPANY, priority 2013, published 2015)", "key": {"[1]": {"tested_on": "oilseed rape", "assay": "Test D preemergence", "type": "in vivo, Brassica napus", "settings": "Preemergence, scale 0 to 100", "how_it_was_run": "(§1)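 Preemergence: seeds sown in silt loam soil and sprayed with test chemical in non-phytotoxic solvent mixture with surfactant. Postemergence: plants grown in peat/vermiculite medium, sprayed at 2–18 cm (1- to 4-leaf stage). Visual rating versus untreated controls after 14–21 days, 0 (no effect) to 100 (complete control).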"}, "[2]": {"tested_on": "wheat, winter", "assay": "Test D preemergence", "type": "in vivo, Triticum aestivum", "settings": "Preemergence, scale 0 to 100", "how_it_was_run": "as §1"}, "[3]": {"tested_on": "wheat, spring", "assay": "Test D preemergence", "type": "in vivo, Triticum aestivum", "settings": "Preemergence, scale 0 to 100", "how_it_was_run": "as §1"}, "[4]": {"tested_on": "windgrass", "assay": "Test D preemergence", "type": "in vivo, Apera spica-venti", "settings": "Preemergence, scale 0 to 100", "how_it_was_run": "as §1"}, "[5]": {"tested_on": "kochia", "assay": "Test D preemergence", "type": "in vivo, Kochia scoparia", "settings": "Preemergence, scale 0 to 100", "how_it_was_run": "as §1"}, "[6]": {"tested_on": "bromegrass, downy", "assay": "Test D preemergence", "type": "in vivo, Bromus tectorum", "settings": "Preemergence, scale 0 to 100", "how_it_was_run": "as §1"}, "[7]": {"tested_on": "chickweed", "assay": "Test D preemergence", "type": "in vivo, Stellaria media", "settings": "Preemergence, scale 0 to 100", "how_it_was_run": "as §1"}, "[8]": {"tested_on": "radish, wild", "assay": "Test D preemergence", "type": "in vivo, Raphanus raphanistrum", "settings": "Preemergence, scale 0 to 100", "how_it_was_run": "as §1"}, "[9]": {"tested_on": "canarygrass", "assay": "Test D postemergence", "type": "in vivo, Phalaris minor", "settings": "scale 0 to 100", "how_it_was_run": "as §1"}, "[10]": {"tested_on": "kochia", "assay": "Test D postemergence", "type": "in vivo, Kochia scoparia", "settings": "scale 0 to 100", "how_it_was_run": "as §1"}, "[11]": {"tested_on": "lambsquarters", "assay": "Test D preemergence", "type": "in vivo, Chenopodium album", "settings": "Preemergence, scale 0 to 100", "how_it_was_run": "as §1"}, "[12]": {"tested_on": "field poppy", "assay": "Test D postemergence", "type": "in vivo, Papaver rhoeas", "settings": "scale 0 to 100", "how_it_was_run": "as §1"}, "[13]": {"tested_on": "speedwell", "assay": "Test D postemergence", "type": "in vivo, Veronica persica", "settings": "scale 0 to 100", "how_it_was_run": "as §1"}, "[14]": {"tested_on": "blackgrass", "assay": "Test D preemergence", "type": "in vivo, Alopecurus myosuroides", "settings": "Preemergence, scale 0 to 100", "how_it_was_run": "as §1"}, "[15]": {"tested_on": "galium", "assay": "Test D preemergence", "type": "in vivo, Galium aparine", "settings": "Preemergence, scale 0 to 100", "how_it_was_run": "as §1"}, "[16]": {"tested_on": "chickweed", "assay": "Test D postemergence", "type": "in vivo, Stellaria media", "settings": "scale 0 to 100", "how_it_was_run": "as §1"}, "[17]": {"tested_on": "barley, winter", "assay": "Test D postemergence", "type": "in vivo, Hordeum vulgare", "settings": "scale 0 to 100", "how_it_was_run": "as §1"}, "[18]": {"tested_on": "barley, spring", "assay": "Test D postemergence", "type": "in vivo, Hordeum vulgare", "settings": "scale 0 to 100", "how_it_was_run": "as §1"}, "[19]": {"tested_on": "field poppy", "assay": "Test D preemergence", "type": "in vivo, Papaver rhoeas", "settings": "Preemergence, scale 0 to 100", "how_it_was_run": "as §1"}, "[20]": {"tested_on": "oilseed rape", "assay": "Test D postemergence", "type": "in vivo, Brassica napus", "settings": "scale 0 to 100", "how_it_was_run": "as §1"}, "[21]": {"tested_on": "ryegrass, Italian", "assay": "Test D postemergence", "type": "in vivo, Lolium multiflorum", "settings": "scale 0 to 100", "how_it_was_run": "as §1"}}}
{"smiles": "CCCc1cc(C(=O)NC(C)C)nn1Cc1cc(C(F)(F)F)nn1C", "note": "[Compound 201]", "values": [{"measurement": "Plant response rating, Oilseed Rape", "setting": "[1]; 62 g ai/ha", "result": 100}, {"measurement": "Plant response rating, Oilseed Rape", "setting": "[1]; 125 g ai/ha", "result": 100}, {"measurement": "Plant response rating, Oilseed Rape", "setting": "[1]; 250 g ai/ha", "result": 100}, {"measurement": "Plant response rating, Wheat, Winter", "setting": "[2]; 62 g ai/ha", "result": 40}, {"measurement": "Plant response rating, Wheat, Winter", "setting": "[2]; 125 g ai/ha", "result": 70}, {"measurement": "Plant response rating, Wheat, Winter", "setting": "[2]; 250 g ai/ha", "result": 95}, {"measurement": "Plant response rating, Wheat, Spring", "setting": "[3]; 62 g ai/ha", "result": 55}, {"measurement": "Plant response rating, Wheat, Spring", "setting": "[3]; 125 g ai/ha", "result": 75}, {"measurement": "Plant response rating, Wheat, Spring", "setting": "[3]; 250 g ai/ha", "result": 100}, {"measurement": "Plant response rating, Windgrass", "setting": "[4]; 62 g ai/ha", "result": 100}, {"measurement": "Plant response rating, Windgrass", "setting": "[4]; 125 g ai/ha", "result": 100}, {"measurement": "Plant response rating, Windgrass", "setting": "[4]; 250 g ai/ha", "result": 100}, {"measurement": "Plant response rating, Kochia", "setting": "[5]; 62 g ai/ha", "result": 100}, {"measurement": "Plant response rating, Kochia", "setting": "[5]; 125 g ai/ha", "result": 100}, {"measurement": "Plant response rating, Kochia", "setting": "[5]; 250 g ai/ha", "result": 100}, {"measurement": "Plant response rating, Bromegrass, Downy", "setting": "[6]; 31 g ai/ha", "result": 20}, {"measurement": "Plant response rating, Bromegrass, Downy", "setting": "[6]; 62 g ai/ha", "result": 60}, {"measurement": "Plant response rating, Bromegrass, Downy", "setting": "[6]; 125 g ai/ha", "result": 70}, {"measurement": "Plant response rating, Bromegrass, Downy", "setting": "[6]; 250 g ai/ha", "result": 100}, {"measurement": "Plant response rating, Chickweed", "setting": "[7]; 31 g ai/ha", "result": 80}, {"measurement": "Plant response rating, Chickweed", "setting": "[7]; 62 g ai/ha", "result": 100}, {"measurement": "Plant response rating, Chickweed", "setting": "[7]; 125 g ai/ha", "result": 100}, {"measurement": "Plant response rating, Chickweed", "setting": "[7]; 250 g ai/ha", "result": 100}, {"measurement": "Plant response rating, Radish, Wild", "setting": "[8]; 62 g ai/ha", "result": 100}, {"measurement": "Plant response rating, Radish, Wild", "setting": "[8]; 125 g ai/ha", "result": 100}, {"measurement": "Plant response rating, Radish, Wild", "setting": "[8]; 250 g ai/ha", "result": 100}, {"measurement": "Canarygrass plant response rating", "setting": "[9]; Postemergence, 31 g ai/ha", "result": 15}, {"measurement": "Canarygrass plant response rating", "setting": "[9]; Postemergence, 125 g ai/ha", "result": 20}, {"measurement": "Canarygrass plant response rating", "setting": "[9]; Postemergence, 250 g ai/ha", "result": 60}, {"measurement": "Canarygrass plant response rating", "setting": "[9]; postemergence, 62 g ai/ha", "result": 15}, {"measurement": "Kochia plant response rating", "setting": "[10]; Postemergence, 31 g ai/ha", "result": 75}, {"measurement": "Kochia plant response rating", "setting": "[10]; Postemergence, 125 g ai/ha", "result": 85}, {"measurement": "Kochia plant response rating", "setting": "[10]; Postemergence, 250 g ai/ha", "result": 85}, {"measurement": "Kochia plant response rating", "setting": "[10]; postemergence, 62 g ai/ha", "result": 75}, {"measurement": "Plant response rating, Lambsquarters", "setting": "[11]; 62 g ai/ha", "result": 90}, {"measurement": "Plant response rating, Lambsquarters", "setting": "[11]; 125 g ai/ha", "result": 100}, {"measurement": "Plant response rating, Lambsquarters", "setting": "[11]; 250 g ai/ha", "result": 100}, {"measurement": "Field Poppy plant response rating", "setting": "[12]; Postemergence, 31 g ai/ha", "result": 55}, {"measurement": "Field Poppy plant response rating", "setting": "[12]; Postemergence, 125 g ai/ha", "result": 60}, {"measurement": "Field Poppy plant response rating", "setting": "[12]; Postemergence, 250 g ai/ha", "result": 65}, {"measurement": "Field Poppy plant response rating", "setting": "[12]; postemergence, 62 g ai/ha", "result": 55}, {"measurement": "Speedwell plant response rating", "setting": "[13]; Postemergence, 31 g ai/ha", "result": 70}, {"measurement": "Speedwell plant response rating", "setting": "[13]; Postemergence, 125 g ai/ha", "result": 70}, {"measurement": "Speedwell plant response rating", "setting": "[13]; Postemergence, 250 g ai/ha", "result": 100}, {"measurement": "Speedwell plant response rating", "setting": "[13]; postemergence, 62 g ai/ha", "result": 70}, {"measurement": "Plant response rating, Blackgrass", "setting": "[14]; 31 g ai/ha", "result": 35}, {"measurement": "Plant response rating, Blackgrass", "setting": "[14]; 62 g ai/ha", "result": 90}, {"measurement": "Plant response rating, Blackgrass", "setting": "[14]; 125 g ai/ha", "result": 100}, {"measurement": "Plant response rating, Blackgrass", "setting": "[14]; 250 g ai/ha", "result": 100}, {"measurement": "Plant response rating, Galium", "setting": "[15]; 62 g ai/ha", "result": 50}, {"measurement": "Plant response rating, Galium", "setting": "[15]; 125 g ai/ha", "result": 100}, {"measurement": "Plant response rating, Galium", "setting": "[15]; 250 g ai/ha", "result": 100}, {"measurement": "Chickweed plant response rating", "setting": "[16]; Postemergence, 31 g ai/ha", "result": 55}, {"measurement": "Chickweed plant response rating", "setting": "[16]; Postemergence, 125 g ai/ha", "result": 70}, {"measurement": "Chickweed plant response rating", "setting": "[16]; Postemergence, 250 g ai/ha", "result": 75}, {"measurement": "Chickweed plant response rating", "setting": "[16]; postemergence, 62 g ai/ha", "result": 55}, {"measurement": "Barley, Winter plant response rating", "setting": "[17]; Postemergence, 31 g ai/ha", "result": 20}, {"measurement": "Barley, Winter plant response rating", "setting": "[17]; Postemergence, 125 g ai/ha", "result": 25}, {"measurement": "Barley, Winter plant response rating", "setting": "[17]; Postemergence, 250 g ai/ha", "result": 35}, {"measurement": "Barley, Winter plant response rating", "setting": "[17]; postemergence, 62 g ai/ha", "result": 20}, {"measurement": "Barley, Spring plant response rating", "setting": "[18]; Postemergence, 31 g ai/ha", "result": 25}, {"measurement": "Barley, Spring plant response rating", "setting": "[18]; Postemergence, 125 g ai/ha", "result": 25}, {"measurement": "Barley, Spring plant response rating", "setting": "[18]; Postemergence, 250 g ai/ha", "result": 40}, {"measurement": "Barley, Spring plant response rating", "setting": "[18]; postemergence, 62 g ai/ha", "result": 25}, {"measurement": "Plant response rating, Field Poppy", "setting": "[19]; 62 g ai/ha", "result": 100}, {"measurement": "Plant response rating, Field Poppy", "setting": "[19]; 125 g ai/ha", "result": 100}, {"measurement": "Plant response rating, Field Poppy", "setting": "[19]; 250 g ai/ha", "result": 100}, {"measurement": "Oilseed Rape plant response rating", "setting": "[20]; Postemergence, 31 g ai/ha", "result": 40}, {"measurement": "Oilseed Rape plant response rating", "setting": "[20]; Postemergence, 125 g ai/ha", "result": 50}, {"measurement": "Oilseed Rape plant response rating", "setting": "[20]; Postemergence, 250 g ai/ha", "result": 70}, {"measurement": "Oilseed Rape plant response rating", "setting": "[20]; postemergence, 62 g ai/ha", "result": 40}, {"measurement": "Ryegrass, Italian plant response rating", "setting": "[21]; Postemergence, 31 g ai/ha", "result": 15}, {"measurement": "Ryegrass, Italian plant response rating", "setting": "[21]; Postemergence, 125 g ai/ha", "result": 20}, {"measurement": "Ryegrass, Italian plant response rating", "setting": "[21]; Postemergence, 250 g ai/ha", "result": 50}, {"measurement": "Ryegrass, Italian plant response rating", "setting": "[21]; postemergence, 62 g ai/ha", "result": 15}]}
